Data reported in publication PMC6409085, “Three odorant-binding proteins are involved in the behavioral response of Sogatella furcifera to rice plant volatiles” (PeerJ, 2019).
Where “and” joins values, the source holds several entries; their conditions need not be identical. Equal values may be shown once.

What was measured:
[1] = target: SfurOBP2 (Sogatella furcifera, UniProt V5T759); experiment: biochemical; assay type: binding
Procedure, shortened: (§1)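 Protein 2.0 µM + 1-NPN 2.0 µM, 50 mM Tris-HCl pH 7.4; competitor odorants 2, 4 … 20 µM final; read 2 min post-addition, ex 337/em 390–490 nm; n=3. K1-NPN from 1-NPN titration/Scatchard; Ki from IC50 corrected for free 1-NPN.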

[2] = target: SfurOBP11 (Sogatella furcifera, UniProt V5T6E3); experiment: biochemical; assay type: binding
Chain of SfurOBP11 (V5T6E3 entry or part of it): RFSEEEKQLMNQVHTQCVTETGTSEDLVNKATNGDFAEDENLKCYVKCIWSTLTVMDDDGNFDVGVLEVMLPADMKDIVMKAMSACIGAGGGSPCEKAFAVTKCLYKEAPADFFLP
Procedure, shortened: as §1

[3] = target: SfurOBP1 (Sogatella furcifera, UniProt V5T8N5); experiment: biochemical; assay type: binding; conditions: for Fluorescence competitive binding assay, fluorescence intensity: OBP1, three replicate columns
Chain of SfurOBP1 (V5T8N5 entry or part of it): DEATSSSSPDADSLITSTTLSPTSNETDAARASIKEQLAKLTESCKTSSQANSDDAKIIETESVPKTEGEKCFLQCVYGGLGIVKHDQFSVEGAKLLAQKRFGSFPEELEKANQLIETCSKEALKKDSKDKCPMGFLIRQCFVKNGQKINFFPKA
Procedure, shortened: as §1

[4] = target: SfurOBP3 (Sogatella furcifera, UniProt V5T818); experiment: biochemical; assay type: binding; conditions: for Fluorescence competitive binding assay, fluorescence intensity: OBP3, three replicate columns
Chain of SfurOBP3 (V5T818 entry or part of it): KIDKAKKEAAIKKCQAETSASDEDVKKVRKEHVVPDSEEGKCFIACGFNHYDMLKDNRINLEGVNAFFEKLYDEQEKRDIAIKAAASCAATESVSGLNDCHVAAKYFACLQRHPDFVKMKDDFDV
Procedure, shortened: as §1

[5] = test system: S. furcifera adults; experiment: Y-tube olfactometer behavioral trials; assay type: in vivo, Sogatella furcifera; conditions: odorant 50 µL/L vs hexane; adults
Procedure, shortened: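 Single S. furcifera adults (2 days post-emergence, starved 0.5 h) chose between odorant (100 µL of 50 µL/L on filter paper) and hexane control in a glass Y-tube, charcoal-filtered humidified air 300 mL/min per arm, 25 ± 1 °C, 50% RH. Choice scored if insect passed half an arm and stayed >1 min within 10 min; 45 insects per compound, chi-squared test.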

Chain of SfurOBP2 (V5T759 entry or part of it): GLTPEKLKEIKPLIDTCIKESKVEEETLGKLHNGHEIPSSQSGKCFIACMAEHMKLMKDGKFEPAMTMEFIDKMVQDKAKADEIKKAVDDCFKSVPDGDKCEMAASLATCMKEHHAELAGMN

- IC50 ([1]; SfurOBP2, protein and 1-NPN both 2.0 µM, competitor 2-20 µM, read-out: IC50): > 20 µM
- Fluorescence competitive binding assay, OBP2 (raw fluorescence reading) ([1]; ligand concentration 2 (unit not given), replicate column 1 of 3): 22779
- Fluorescence competitive binding assay, OBP2 (raw fluorescence reading) ([1]; ligand concentration 2 (unit not given), replicate column 2 of 3): 20086
- Fluorescence competitive binding assay, OBP2 (raw fluorescence reading) ([1]; ligand concentration 2 (unit not given), replicate column 3 of 3): 21018
- Fluorescence competitive binding assay, OBP2 (raw fluorescence reading) ([1]; ligand concentration 4 (unit not given), replicate column 1 of 3): 21686
- Fluorescence competitive binding assay, OBP2 (raw fluorescence reading) ([1]; ligand concentration 4 (unit not given), replicate column 2 of 3): 22088
- Fluorescence competitive binding assay, OBP2 (raw fluorescence reading) ([1]; ligand concentration 4 (unit not given), replicate column 3 of 3): 20918
- Fluorescence competitive binding assay, OBP2 (raw fluorescence reading) ([1]; ligand concentration 6 (unit not given), replicate column 1 of 3): 24120
- Fluorescence competitive binding assay, OBP2 (raw fluorescence reading) ([1]; ligand concentration 6 (unit not given), replicate column 2 of 3): 23625
- Fluorescence competitive binding assay, OBP2 (raw fluorescence reading) ([1]; ligand concentration 6 (unit not given), replicate column 3 of 3): 22791
- Fluorescence competitive binding assay, OBP2 (raw fluorescence reading) ([1]; ligand concentration 8 (unit not given), replicate column 1 of 3): 22496
- Fluorescence competitive binding assay, OBP2 (raw fluorescence reading) ([1]; ligand concentration 8 (unit not given), replicate column 2 of 3): 24832
- Fluorescence competitive binding assay, OBP2 (raw fluorescence reading) ([1]; ligand concentration 8 (unit not given), replicate column 3 of 3): 23266
- Fluorescence competitive binding assay, OBP2 (raw fluorescence reading) ([1]; ligand concentration 10 (unit not given), replicate column 1 of 3): 22518
- Fluorescence competitive binding assay, OBP2 (raw fluorescence reading) ([1]; ligand concentration 10 (unit not given), replicate column 2 of 3): 23515
- Fluorescence competitive binding assay, OBP2 (raw fluorescence reading) ([1]; ligand concentration 10 (unit not given), replicate column 3 of 3): 22157
- Fluorescence competitive binding assay, OBP2 (raw fluorescence reading) ([1]; ligand concentration 12 (unit not given), replicate column 1 of 3): 23732
- Fluorescence competitive binding assay, OBP2 (raw fluorescence reading) ([1]; ligand concentration 12 (unit not given), replicate column 2 of 3): 24191
- Fluorescence competitive binding assay, OBP2 (raw fluorescence reading) ([1]; ligand concentration 12 (unit not given), replicate column 3 of 3): 22198
- Fluorescence competitive binding assay, OBP2 (raw fluorescence reading) ([1]; ligand concentration 14 (unit not given), replicate column 1 of 3): 22713
- Fluorescence competitive binding assay, OBP2 (raw fluorescence reading) ([1]; ligand concentration 14 (unit not given), replicate column 2 of 3): 20356
- Fluorescence competitive binding assay, OBP2 (raw fluorescence reading) ([1]; ligand concentration 14 (unit not given), replicate column 3 of 3): 21973
- Fluorescence competitive binding assay, OBP2 (raw fluorescence reading) ([1]; ligand concentration 16 (unit not given), replicate column 1 of 3): 21871
- Fluorescence competitive binding assay, OBP2 (raw fluorescence reading) ([1]; ligand concentration 16 (unit not given), replicate column 2 of 3): 23043
- Fluorescence competitive binding assay, OBP2 (raw fluorescence reading) ([1]; ligand concentration 16 (unit not given), replicate column 3 of 3): 23038
- Fluorescence competitive binding assay, OBP2 (raw fluorescence reading) ([1]; ligand concentration 18 (unit not given), replicate column 1 of 3): 25864
- Fluorescence competitive binding assay, OBP2 (raw fluorescence reading) ([1]; ligand concentration 18 (unit not given), replicate column 2 of 3): 26767
- Fluorescence competitive binding assay, OBP2 (raw fluorescence reading) ([1]; ligand concentration 18 (unit not given), replicate column 3 of 3): 25338
- Fluorescence competitive binding assay, OBP2 (raw fluorescence reading) ([1]; ligand concentration 20 (unit not given), replicate column 1 of 3): 26712
- Fluorescence competitive binding assay, OBP2 (raw fluorescence reading) ([1]; ligand concentration 20 (unit not given), replicate column 2 of 3): 23676
- Fluorescence competitive binding assay, OBP2 (raw fluorescence reading) ([1]; ligand concentration 20 (unit not given), replicate column 3 of 3): 24323
- IC50 ([2]; SfurOBP11, protein and 1-NPN both 2.0 µM, competitor 2-20 µM, read-out: IC50): > 20 µM
- Fluorescence intensity, fluorescence competitive binding assay, OBP11 ([2]; ligand concentration 2, replicate 1): 39005
- Fluorescence intensity, fluorescence competitive binding assay, OBP11 ([2]; ligand concentration 2, replicate 2): 36085
- Fluorescence intensity, fluorescence competitive binding assay, OBP11 ([2]; ligand concentration 2, replicate 3): 36144
- Fluorescence intensity, fluorescence competitive binding assay, OBP11 ([2]; ligand concentration 4, replicate 1): 38725
- Fluorescence intensity, fluorescence competitive binding assay, OBP11 ([2]; ligand concentration 4, replicate 2): 39209
- Fluorescence intensity, fluorescence competitive binding assay, OBP11 ([2]; ligand concentration 4, replicate 3): 36494
- Fluorescence intensity, fluorescence competitive binding assay, OBP11 ([2]; ligand concentration 6, replicate 1): 38941
- Fluorescence intensity, fluorescence competitive binding assay, OBP11 ([2]; ligand concentration 6, replicate 2): 37869
- Fluorescence intensity, fluorescence competitive binding assay, OBP11 ([2]; ligand concentration 6, replicate 3): 35504
- Fluorescence intensity, fluorescence competitive binding assay, OBP11 ([2]; ligand concentration 8, replicate 1): 38326
- Fluorescence intensity, fluorescence competitive binding assay, OBP11 ([2]; ligand concentration 8, replicate 2): 38320
- Fluorescence intensity, fluorescence competitive binding assay, OBP11 ([2]; ligand concentration 8, replicate 3): 34260
- Fluorescence intensity, fluorescence competitive binding assay, OBP11 ([2]; ligand concentration 10, replicate 1): 39470
- Fluorescence intensity, fluorescence competitive binding assay, OBP11 ([2]; ligand concentration 10, replicate 2): 35190
- Fluorescence intensity, fluorescence competitive binding assay, OBP11 ([2]; ligand concentration 10, replicate 3): 34723
- Fluorescence intensity, fluorescence competitive binding assay, OBP11 ([2]; ligand concentration 12, replicate 1): 35740
- Fluorescence intensity, fluorescence competitive binding assay, OBP11 ([2]; ligand concentration 12, replicate 2): 35339
- Fluorescence intensity, fluorescence competitive binding assay, OBP11 ([2]; ligand concentration 12, replicate 3): 34546
- Fluorescence intensity, fluorescence competitive binding assay, OBP11 ([2]; ligand concentration 14, replicate 1): 33030
- Fluorescence intensity, fluorescence competitive binding assay, OBP11 ([2]; ligand concentration 14, replicate 2): 32494
- Fluorescence intensity, fluorescence competitive binding assay, OBP11 ([2]; ligand concentration 14, replicate 3): 31487
- Fluorescence intensity, fluorescence competitive binding assay, OBP11 ([2]; ligand concentration 16, replicate 1): 29383
- Fluorescence intensity, fluorescence competitive binding assay, OBP11 ([2]; ligand concentration 16, replicate 2): 30154
- Fluorescence intensity, fluorescence competitive binding assay, OBP11 ([2]; ligand concentration 16, replicate 3): 29504
- Fluorescence intensity, fluorescence competitive binding assay, OBP11 ([2]; ligand concentration 18, replicate 1): 32894
- Fluorescence intensity, fluorescence competitive binding assay, OBP11 ([2]; ligand concentration 18, replicate 2): 34140
- Fluorescence intensity, fluorescence competitive binding assay, OBP11 ([2]; ligand concentration 18, replicate 3): 29208
- Fluorescence intensity, fluorescence competitive binding assay, OBP11 ([2]; ligand concentration 20, replicate 1): 31537
- Fluorescence intensity, fluorescence competitive binding assay, OBP11 ([2]; ligand concentration 20, replicate 2): 29929
- Fluorescence intensity, fluorescence competitive binding assay, OBP11 ([2]; ligand concentration 20, replicate 3): 28655
- Fluorescence competitive binding assay, fluorescence intensity ([3]; ligand concentration 2 (μM)): 5361 and 5140 and 5582
- Fluorescence competitive binding assay, fluorescence intensity ([3]; ligand concentration 4 (μM)): 6690 and 6608 and 6742
- Fluorescence competitive binding assay, fluorescence intensity ([3]; ligand concentration 6 (μM)): 8870 and 9897 and 7869
- Fluorescence competitive binding assay, fluorescence intensity ([3]; ligand concentration 8 (μM)): 7482 and 6593 and 11079
- Fluorescence competitive binding assay, fluorescence intensity ([3]; ligand concentration 10 (μM)): 7327 and 7941 and 8862
- Fluorescence competitive binding assay, fluorescence intensity ([3]; ligand concentration 12 (μM)): 8260 and 9027 and 8555
- Fluorescence competitive binding assay, fluorescence intensity ([3]; ligand concentration 14 (μM)): 9439 and 7708 and 9780
- Fluorescence competitive binding assay, fluorescence intensity ([3]; ligand concentration 16 (μM)): 8450 and 9204 and 7552
- Fluorescence competitive binding assay, fluorescence intensity ([3]; ligand concentration 18 (μM)): 9810 and 13450 and 9951
- Fluorescence competitive binding assay, fluorescence intensity ([3]; ligand concentration 20 (μM)): 10406 and 10007 and 8824
- IC50 ([3]; SfurOBP1, protein and 1-NPN both 2.0 µM, competitor 2-20 µM, read-out: IC50): > 20 µM
- Fluorescence competitive binding assay, fluorescence intensity ([4]; ligand concentration 2): 81706 and 89895 and 90926
- Fluorescence competitive binding assay, fluorescence intensity ([4]; ligand concentration 4): 92466 and 96932 and 93745
- Fluorescence competitive binding assay, fluorescence intensity ([4]; ligand concentration 6): 84153 and 91141 and 92184
- Fluorescence competitive binding assay, fluorescence intensity ([4]; ligand concentration 8): 88550 and 83959 and 85903
- Fluorescence competitive binding assay, fluorescence intensity ([4]; ligand concentration 10): 84955 and 81246 and 84347
- Fluorescence competitive binding assay, fluorescence intensity ([4]; ligand concentration 12): 79099 and 81968 and 85076
- Fluorescence competitive binding assay, fluorescence intensity ([4]; ligand concentration 14): 78930 and 78937 and 80614
- Fluorescence competitive binding assay, fluorescence intensity ([4]; ligand concentration 16): 67688 and 71739 and 72376
- Fluorescence competitive binding assay, fluorescence intensity ([4]; ligand concentration 18): 93819 and 87996 and 91999
- Fluorescence competitive binding assay, fluorescence intensity ([4]; ligand concentration 20): 87679 and 80588 and 71651
- IC50 ([4]; SfurOBP3, protein and 1-NPN both 2.0 µM, competitor 2-20 µM, read-out: IC50): > 20 µM
Structure (SMILES): CCCCCCCCCCCCCCCCCCC [n-nonadecane]
- number of insects choosing hexane arm [5]: 13
- number of insects choosing volatilies arm [5]: 15
- number of insects failed (no choice) [5]: 12
